The structures appear in SMILES notation. Entries after “also recorded” stand apart in the source; their conditions may differ. Marks after values point to notes of the source that are not given here.

Series [1] can be described thus: Cleavage of PPD (3) to benzoic acid by NHC precursors, Method B (MeCN co-solvent). The series is classed as biochemical. The protocol:
Dicarbonyl cleavage reactions were performed using either the method described in Vasan et al., An agent cleaving glucose-derived protein crosslinks in vitro and in vivo, Nature (1996) Vol. 382, pp. 275-278 (Method A) or a modified method with MeCN as a co-solvent (Method B).
(§1) 60 mM solution of dicarbonyl substrate (45 μmol) in MeCN (0.75 ml) was added to 20 mM solution of NHC (15 μmol) in 0.15 M pH 7.4 sodium phosphate buffer (0.75 ml) and kept stirred at 37° C. At stated times, 75 μl aliquots were taken, diluted with 50% MeCN/H2O (425 μl) and analyzed by LCMS with 2,4-dihydroxyquinoline (248 μM) as an internal standard. The cleavage products were quantified by peak integration against the calibration curves.
Thus, our first goal in these studies was to assess the ability of various NHC precursors to induce the degradation of the dicarbonyl model substrate (PPD, 3). To this end, we screened the thiazolium (4-6), benzothiazolium (7), triazolium (8,9) and imidazolium (10) halide substructures shown in Table 1.

Series [2] in a line: NHC-mediated cleavage of bis-alkyl diketone 14, Method B. The series is classed as biochemical. Particulars: LCMS, with respect to dicarbonyl. The protocol: as §1
(§2) Our efforts to investigate the scope of thiazolium salt-mediated reactions with dicarbonyls began with bis-alkyl diketone 14 (Table 3, Entry 1). This substrate is cleaved cleanly by 2, and affords acid 18 in 82% yield. NHC precursor 4, on the other hand, provides 18 in only 14% yield (Entry 2). The efficiency of dicarbonyl cleavage reactions decreases substantially in the case of benzil (15, Entry 3), which affords benzoic acid in 14% and 1% yield following exposure to 2 and 4, respectively.

Series [3] can be described thus: NHC-mediated cleavage of benzil (15), Method B. In kind it is biochemical. Particulars: LCMS, with respect to dicarbonyl. The protocol: as §1, §2
Series [4] in a line: NHC-mediated reaction with α-keto aldehyde phenylglyoxal (16), Method B. The series is classed as biochemical. Particulars: isolated yield with respect to 2. The method, then: as §1
Phenylglyoxal hydrate (16; 114 mg, 0.75 mmol, 2 eq) was added to a solution of ALT-711 (2; 100 mg, 0.37 mmol) in 50% MeCN/0.15 M pH 7.4 phosphate buffer (total vol. 37 ml) and kept stirred at room temperature for 15 mins. The reaction mixture was cooled to −20° C. to precipitate out sodium phosphate as white crystals. The supernatant was transferred, and the residue was washed with MeCN and combined with the supernatant. This yellow clear solution was concentrated at room temperature to remove MeCN and purified by HPLC (16-27MeCN over 31 min). […]
(§3) Reactions involving α-keto aldehyde derivatives 16 and 17 followed an unexpected course. Treatment of these substrates with 2 led to instantaneous, high-yield production of a diastercomeric mixture of cycloadducts (19 and 20) that decompose to complex mixtures under the reaction conditions with half-lives of approximately 3 h Structures were determined based on in-depth NMR analysis (see Supplementary Material).

A short description of series [5]: NHC-mediated reaction with α-keto aldehyde methylglyoxal (17), Method B. In kind it is biochemical. The settings on record: isolated yield with respect to 2. The method, then: as §1
Four diastereomers (ALT-MGO-1 through ALT-MGO-4) were obtained with a similar method to ALT-PG using 2 (100 mg, 0.37 mmol) and 40% methylglyoxal (MOO, 17) solution (0.2 ml, 1.3 mmol, 3.5 eq). Purification was performed by HPLC (9-19% MeCN over 32 min), and the lyophilization of fractions afforded the title compounds as white solids (96% combined yield). See Supplementary Material for characterization data.
as §3

Series [6] is described as follows: Trapping of methylglyoxal under physiological conditions (PBS). The series is classed as biochemical. Particulars: 37° C., 24 hours, MGO at pathologically relevant concentration (4-6 μM). The protocol: For trapping under physiological conditions (FIG. 5), 12.5 μl of 2 (40 mM stock) and 7.7 μl of MGO (6.5 mM stock) were added to PBS (4.98 ml) and kept stirred at 37° C. At stated times, 445 μl of the reaction mixture was taken, quenched with 1 M HCl (5 μl) and analyzed by LCMS after adding 50 μl of 3 mM 4-methoxybenzhydrol as an internal standard. Yield of ALT-MGO (20) was determined by peak integration (m/z=304) against a calibration curve.
Recognizing the reaction conditions employed above were non-physiological, we wanted to test if ALT-711 could efficiently trap methylglyoxal (MGO, 17) at a pathologically relevant concentration (4-6 μM). We obtained ALT-MOO adduct (20) in PBS with a 53% yield at 24 hours (FIG. 5B). […] The trapping of MGO by ALT-711 may be the mechanism for the observed effects.

In series [7] the test system is AGE precursor (α-dicarbonyl) on RBCs. The series can be described thus: AGE precursor (α-dicarbonyl) levels on stored RBCs (dicarbonyl-specific fluorophore). Particulars: typical storage conditions, up to 14 days. The series is classed as cell-based, mouse. The protocol: (§4) Leuko-reduced mouse blood was stored under typical storage conditions for up to 14 days, in either OCR6043, control compound, or without any treatment. FIG. 2A illustrates an analysis of glucose in the serum from the stored blood was evaluated using a glucose oxidase enzymatic assay. […] FIG. 2B illustrates the AGE precursor levels on RBCs were measured using a dicarbonyl-specific fluorophore that was developed in-house. The time dependent increase in the AGE precursor levels was dampened in the presence of OCR6043. FIG. 2C illustrates mouse blood that was stored for 14 days, was evaluated for its immunogenicity upon transfusion, by testing for IgGs against an alloantigen on the RBCs (HOD=HEL-OVA-Duffy).

Series [8] has as its system HOD alloantigen on stored RBCs. The series can be described thus: Immunogenicity of stored blood upon transfusion (anti-HOD IgG ELISA). In kind it is in vivo, mouse. The settings on record: blood stored 14 days, transfused into B6 mice, 14 days following transfusion. The protocol:
as §4
OCR6043 treatment decreases immunogenicity, and enhances post-transfusion recovery of stored mouse blood. Leukoreduced mouse blood was stored under typical storage conditions for up to 14 days in either OCR6043 or without any treatment. This mouse blood was evaluated for its immunogenicity upon transfusion by testing for IgGs against an alloantigen on the RBCs (HOD=HEL-OVA-Duffy).
As described herein, the stored blood has an HOD marker allowing facile detection after transfusion. We transfused […] of stored blood into B6 mice (not expressing the HOD antigen). […] The anti-HOD IgG response was evaluated using standard ELISA techniques described in Hendrickson et at.

A further series has as its system circulating stored RBCs. Kind of series: Post-transfusion recovery of stored RBCs (flow cytometry). In kind it is in vivo, mouse. Particulars: blood stored 14 days; 24 hours after transfusion; listed as OCR6043. The protocol: as §4
Using the transfusion methodology described in Hendrickson et al., it was possible to identify the surviving circulating RBCs using flow cytometry.
For orientation: A flow cytometer gives signals particle by particle.

The conditions of series [9]: various animal studies and clinical trials; cited from earlier work.
The conditions of series [10]: rats; cited from earlier work.

In the case of `Cc1sc[n+](CC(=O)c2ccccc2)c1C.[Cl-]` [Compound 2], the “Benzoic acid formation from 3 (in words)” value in series [1] (Method B screen of NHC precursors) is recorded as “highest overall yield”. The “Combined % Yield (PhCO2H)” value in series [1] (co-solvent MeCN, Method B, LCMS, with respect to dicarbonyl) was determined as 61%. For the same compound, in series [2], the “% Yield of acid 18 from substrate 14” value is 82%. Besides, the “% Yield of PhCO2H from substrate 15 (benzil)” value in [3] was 14%. In addition, in [4], the “% Yield of cycloadduct 19 from substrate 16” value was 55^b %. In addition, the “% Yield of cycloadduct 20 from substrate 17” value in [5] is given as 96^b %. Also, the “Yield of ALT-MGO adduct (20)” value in [6] is reported as 53%. In addition, in series [7], the “Time dependent increase in AGE precursor levels on RBCs” value is “dampened”. Moreover, the “Immunogenicity upon transfusion (IgG against HOD alloantigen)” value in series [8] (listed as ALT-711) is reported as “lower immunogenicity”; in [8] (listed as OCR6043), “decreased immunogenicity; also recorded: attenuated this immune response”. In the series with circulating stored RBCs, the “Cell survival of transfused stored RBCs versus untreated stored blood” value is on record as “two-fold increase; also recorded: twofold increase”. In series [9], the “Toxicity to animals and humans” value is on record as “non-toxic”. In series [10], the “MGO levels and MGO-induced glucose intolerance” value is “lowered MOO levels and attenuated MOO-induced glucose intolerance”.

Source of the values: patent US9622469B2, “Crosslink breakers for preservation of biological substances” (priority 2013, dated 2017).
